For the assay, the target named is T1, c-Kit (Homo sapiens, UniProt P10721).
T1 construct: whole cytoplasmic domain of c-Kit (aa 544-976); made in house; host or cells: Sf9 or High Five (baculovirus)
The experiment in a line: c-kit kinase inhibition. It is filed as biochemical. As to conditions: Table 4.

Among the data in patent publication US20090099167A1, “Organic compounds” (Novartis Institutes for Biomedical Research, priority 2004, published 2009) are IC50 values, retold here.

Each structure is given as a SMILES string.

T1 sequence (P10721 544-976): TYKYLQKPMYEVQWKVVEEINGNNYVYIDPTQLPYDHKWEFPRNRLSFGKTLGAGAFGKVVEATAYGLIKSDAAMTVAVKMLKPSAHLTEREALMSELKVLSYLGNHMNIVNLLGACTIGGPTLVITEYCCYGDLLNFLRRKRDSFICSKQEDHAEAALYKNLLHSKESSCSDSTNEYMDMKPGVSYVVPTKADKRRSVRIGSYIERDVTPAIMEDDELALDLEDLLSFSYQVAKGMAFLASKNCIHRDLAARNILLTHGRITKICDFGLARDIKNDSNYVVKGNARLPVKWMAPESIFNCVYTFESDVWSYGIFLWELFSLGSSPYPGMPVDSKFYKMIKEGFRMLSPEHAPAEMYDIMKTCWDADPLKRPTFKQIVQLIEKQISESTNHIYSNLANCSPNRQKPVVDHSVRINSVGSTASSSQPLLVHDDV

A word on the IC50: it is the concentration that inhibits the measured activity by half. In the case of `CN1CCN(c2ccc(-c3cnn4c(N)c(-c5ccsc5)cnc34)cc2)CC1` [Example 21, 3-[4-(4-Methyl-piperazin-1-yl)-phenyl]-6-thiophen-3-yl-pyrazolo[1,5-a]pyrimidin-7-ylamine], the IC50 is less than 10 µM. The compound `COc1cccc(-c2cnc3c(-c4cccc(N5CCN(C)CC5)c4)cnn3c2N)c1` [Example 24, 6-(3-Methoxy-phenyl)-3-[3-(4-methyl-piperazin-1-yl)-phenyl]-pyrazolo[1,5-a]pyrimidin-7-ylamine] displayed an IC50 of less than 10 µM.
